Reference: article PMC4138103 (PLoS ONE, 2014)

Test system: Sprague-Dawley rats
Assay: Bone biomechanics, three-point bending test of tibial shaft
Format: in vivo, Rattus norvegicus
Set-up: key to Dose response: Biomechanics, diaphysis, Yield Force: D: significant dose response (for results, see Table 2); T: significant trend
Procedure: For biomechanical testing hind limbs were defrosted and tibial shafts tested with a three-point bending test using a custom made testing apparatus, [34]. Each bone was placed on a support with a span length of 13 mm and bending load was applied with a constant speed of 0.155 mm/sec until failure. The breaking force, bending stiffness and yield force were defined from load-displacement data. Stiffness was calculated as the slope of the linear part of load-displacement curve. Yield force was defined as a corresponding force where the fit for stiffness separated from the measured load-displacement curve. The breaking force was defined as bending load at maximum. Corresponding to these forces also both failure and yield deformations were evaluated.
Data were also analyzed using the BMD method, which is based on dose-response modeling of the full data set using a nested family of exponential and Hill models. The analyses were done on data of males and females combined, using sex as a covariate. […] In that case, different Critical Effect Doses (CEDs) and CEDs at the lowest bound of the confidence interval (CED-L) were generated for each sex. If no difference between sexes is detected, a CED and CED-Ls for the combined data is generated. However, this was also done if the curve fits are close, and separate analyses for males and females were then performed manually. CEDs and CED-Ls were calculated at the predefined Critical Effect Size (CES) of 5% (EFSA standard) or 10%.

[1] = tibia, females, total dose 3 mg/kg bw
[2] = tibia, females, total dose 10 mg/kg bw
[3] = tibia, females, total dose 30 mg/kg bw
[4] = tibia, females, total dose 100 mg/kg bw
[5] = tibia, females, total dose 300 mg/kg bw
[6] = tibia, females, total dose 1000 mg/kg bw
[7] = tibia, females, total dose 1700 mg/kg bw
[8] = tibia, males, total dose 3 mg/kg bw
[9] = tibia, males, total dose 10 mg/kg bw
[10] = tibia, males, total dose 30 mg/kg bw
[11] = tibia, males, total dose 100 mg/kg bw
[12] = tibia, males, total dose 300 mg/kg bw
[13] = tibia, males, total dose 1000 mg/kg bw
[14] = tibia, males, total dose 1700 mg/kg bw

Clc1cc(Cl)c(-c2cc(Cl)c(Cl)c(Cl)c2Cl)cc1Cl [PCB 180, 2,2′,3′,4,4′,5,5′-heptachlorobiphenyl]
F yield, CED-L (females, CES 10%, total dose based): 547 mg/kg bw
Yield force of tibial shaft, CED (females, adipose tissue concentration based): 2860 µg/g lipid
Biomechanics, diaphysis: Ultimate Deformation [1]: 0.601 mm
Biomechanics, diaphysis: Ultimate Force [1]: 108 N
Biomechanics, diaphysis: Yield Deformation [1]: 0.291 mm
Biomechanics, diaphysis: Yield Force [1]: 72.2 N
Biomechanics, diaphysis: Ultimate Deformation [2]: 0.634 mm
Biomechanics, diaphysis: Ultimate Force [2]: 106 N
Biomechanics, diaphysis: Yield Deformation [2]: 0.295 mm
Biomechanics, diaphysis: Yield Force [2]: 65.9 N
Biomechanics, diaphysis: Ultimate Deformation [3]: 0.763 mm
Biomechanics, diaphysis: Ultimate Force [3]: 112 N
Biomechanics, diaphysis: Yield Deformation [3]: 0.378 mm
Biomechanics, diaphysis: Yield Force [3]: 81.2 N
Biomechanics, diaphysis: Ultimate Deformation [4]: 0.622 mm
Biomechanics, diaphysis: Ultimate Force [4]: 100 N
Biomechanics, diaphysis: Yield Deformation [4]: 0.360 mm
Biomechanics, diaphysis: Yield Force [4]: 79.7 N
Biomechanics, diaphysis: Ultimate Deformation [5]: 0.640 mm
Biomechanics, diaphysis: Ultimate Force [5]: 104 N
Biomechanics, diaphysis: Yield Deformation [5]: 0.341 mm
Biomechanics, diaphysis: Yield Force [5]: 76.7 N
Biomechanics, diaphysis: Ultimate Deformation [6]: 0.645 mm
Biomechanics, diaphysis: Ultimate Force [6]: 105 N
Biomechanics, diaphysis: Yield Deformation [6]: 0.316 mm
Biomechanics, diaphysis: Yield Force [6]: 71.4 N
Biomechanics, diaphysis: Ultimate Deformation [7]: 0.691 mm
Biomechanics, diaphysis: Ultimate Force [7]: 109 N
Biomechanics, diaphysis: Yield Deformation [7]: 0.276 mm
Biomechanics, diaphysis: Yield Force [7]: 60.4 N
Dose response: Biomechanics, diaphysis, Yield Force (tibia, females, total doses 0-1700 mg/kg bw): D
Biomechanics, diaphysis: Ultimate Deformation [8]: 0.888 mm
Biomechanics, diaphysis: Ultimate Force [8]: 123 N
Biomechanics, diaphysis: Yield Deformation [8]: 0.423 mm
Biomechanics, diaphysis: Yield Force [8]: 84.8 N
Biomechanics, diaphysis: Ultimate Deformation [9]: 0.727 mm
Biomechanics, diaphysis: Ultimate Force [9]: 131 N
Biomechanics, diaphysis: Yield Deformation [9]: 0.333 mm
Biomechanics, diaphysis: Yield Force [9]: 71.9 N
Biomechanics, diaphysis: Ultimate Deformation [10]: 0.704 mm
Biomechanics, diaphysis: Ultimate Force [10]: 122 N
Biomechanics, diaphysis: Yield Deformation [10]: 0.346 mm
Biomechanics, diaphysis: Yield Force [10]: 78.4 N
Biomechanics, diaphysis: Ultimate Deformation [11]: 0.786 mm
Biomechanics, diaphysis: Ultimate Force [11]: 130 N
Biomechanics, diaphysis: Yield Deformation [11]: 0.395 mm
Biomechanics, diaphysis: Yield Force [11]: 87.0 N
Biomechanics, diaphysis: Ultimate Deformation [12]: 0.758 mm
Biomechanics, diaphysis: Ultimate Force [12]: 132 N
Biomechanics, diaphysis: Yield Deformation [12]: 0.295 mm
Biomechanics, diaphysis: Yield Force [12]: 69.0 N
Biomechanics, diaphysis: Ultimate Deformation [13]: 0.772 mm
Biomechanics, diaphysis: Ultimate Force [13]: 120 N
Biomechanics, diaphysis: Yield Deformation [13]: 0.446 mm
Biomechanics, diaphysis: Yield Force [13]: 93.0 N
Biomechanics, diaphysis: Ultimate Deformation [14]: 0.769 mm
Biomechanics, diaphysis: Ultimate Force [14]: 118 N
Biomechanics, diaphysis: Yield Deformation [14]: 0.346 mm
Biomechanics, diaphysis: Yield Force [14]: 81.2 N
